Test results: article PMC9532951, “Identification and characterization of a novel SNAT2 (SLC38A2) inhibitor reveals synergy with glucose transport inhibition in cancer cells” (Frontiers in Pharmacology, 2022)
Where “and” joins values, the source holds several entries; their conditions need not be identical. Equal entries are not always repeated.

Experiments:
SNAT1 and SNAT2 [1] = experiment: FMP assay: inhibition of glutamine-induced membrane depolarisation in amino acid depleted HCC1806 cells; assay type: cell-based, human
Method: The FLIPR Membrane Potential Blue Explorer Kit (Molecular Devices) was used to characterise inhibitors and to optimise a high-throughput compound screen. Cells were seeded at approximately 60,000 cells/well on a 96-well plate and allowed to attach and grow overnight in a cell incubator. […] Cells were then washed once with mHBSS and incubated with 50 µl of the mHBSS-resuspended FMP assay dye and 50 µl of mHBSS (with or without inhibitors) and incubated at room temperature for 30 min. The plate was then placed in an EnSpire Multimode plate reader (PerkinElmer) and four sequential measurements of fluorescence were recorded as a baseline reference. Immediately after the baseline measurements were taken, 25 µl of 5 mM glutamine dissolved in mHBSS was injected into each well and the plate was shaken orbitally for 5 s before a series of consecutive fluorescence measurements were taken. The excitation wavelength was set to 530 nm and the emission was detected at 565 nm. The Δ fluorescent signal reported in the figures was taken 30 s after substrate addition. After the assay was complete, the liquid content of the plate was carefully removed, and the cell monolayer inspected to ensure it remained intact throughout the course of the assay.
IC50 were calculated using equation y=ymax(1−x/x+IC50)

SNAT1 and SNAT2 [2] = experiment: FMP assay in HCC1806 clones C10 (ASCT2ko) and D126 (ASCT2ko, SNAT2ko); assay type: cell-based, human; settings: C10 cells
Method: To delete the SNAT2 (SLC38A2) gene in modified HCC1806 cells (clone C10 nullizygous for ASCT2 ([Broer et al., 2019])), the GeneArt CRISPR Nuclease Vector with OFP Reporter Kit (Invitrogen; A21174) was employed and complementary 19–20 bp long single-stranded oligonucleotides with overhangs were designed to produce a guide RNA (gRNA) for the Cas9 nuclease that would target exon 7 of the SNAT2 gene. Colonies were analysed by sequencing using the U6 primer included in the GeneArt CRISPR Nuclease Vector with OFP Reporter kit. Plasmids that contained the correct CRISPR nuclease construct were then used to transfect HCC1806 cells with Lipofectamine 2000 (Invitrogen). Prior to transfection, medium was replaced with 2 ml of fresh DMEM/F-12 (supplemented with 10% heat-inactivated FBS and 2 mM glutamine). Plasmid DNA (4 µg) and 10 µL of Lipofectamine 2000 were incubated separately for 5 min at room temperature in 500 µl of Opti-MEM (Invitrogen) before being combined and incubated for a further 30 min at room temperature. The DNA-Lipofectamine complex was then added to the cells in a dropwise manner and allowed to be absorbed over 6 h at 37°C, after which the medium was renewed with fresh DMEM/F-12. Cells were checked for red fluorescence using an EVOS FL cell imaging system (Thermo Fisher Scientific) 48–72 h post transfection. Subsequently, cells were detached using 0.25% Trypsin EDTA. After harvesting and washing thrice with PBS (pH 7.4), cells were resuspended in PBS (pH 7.4) supplemented with 5 mM glucose and 1% dialysed and heat inactivated FBS and passed through a 100 μm cell strainer. The cell filtrate was then pelleted once more and resuspended in the same buffer. Cells were sorted using an ARIA II FACS machine and individually dispensed into the wells of a 96-well plate. Nullizygous clones were identified using a series of assays including the FLIPR membrane potential assay, western blotting and sequencing.
The FLIPR Membrane Potential Blue Explorer Kit (Molecular Devices) was used to characterise inhibitors and to optimise a high-throughput compound screen. Cells were seeded at approximately 60,000 cells/well on a 96-well plate and allowed to attach and grow overnight in a cell incubator. The next day, the cells were washed once with mHBSS and incubated in a starvation medium (composed of mHBSS with 1% dialysed heat-inactivated FBS, 23 mM NaHCO3, 10 U/ml penicillin and 10 μg/ml streptomycin) for 24 h. Cells were then washed once with mHBSS and incubated with 50 µl of the mHBSS-resuspended FMP assay dye and 50 µl of mHBSS (with or without inhibitors) and incubated at room temperature for 30 min. The plate was then placed in an EnSpire Multimode plate reader (PerkinElmer) and four sequential measurements of fluorescence were recorded as a baseline reference. Immediately after the baseline measurements were taken, 25 µl of 5 mM glutamine dissolved in mHBSS was injected into each well and the plate was shaken orbitally for 5 s before a series of consecutive fluorescence measurements were taken. The excitation wavelength was set to 530 nm and the emission was detected at 565 nm. The Δ fluorescent signal reported in the figures was taken 30 s after substrate addition. After the assay was complete, the liquid content of the plate was carefully removed, and the cell monolayer inspected to ensure it remained intact throughout the course of the assay.

N[C@@H](CCC(=O)NO)C(=O)O [GHX, L-glutamic acid γ-monohydroxamate]
Mean (delta) fluorescence signal (%) (SNAT1 and SNAT2 [1]; GHX concentration 0.005): 92.4453%
Mean (delta) fluorescence signal (%) (SNAT1 and SNAT2 [1]; GHX concentration 0.05): 88.1978%
Mean (delta) fluorescence signal (%) (SNAT1 and SNAT2 [1]; GHX concentration 0.1): 81.9185%
Mean (delta) fluorescence signal (%) (SNAT1 and SNAT2 [1]; GHX concentration 0.2): 62.0593%
Mean (delta) fluorescence signal (%) (SNAT1 and SNAT2 [1]; GHX concentration 0.5): 45.7050%
Mean (delta) fluorescence signal (%) (SNAT1 and SNAT2 [1]; GHX concentration 1): 28.4974%
Mean (delta) fluorescence signal (%) (SNAT1 and SNAT2 [1]; GHX concentration 3): 5.9801%
FMP fluorescence reading (SNAT1 and SNAT2 [1]; HCC1806, second column group headed UNINDUCED (c11-c19), t=-30 s, glutamine introduced at t=0, replicates 1-3): 80140 and 84104 and 92453
FMP fluorescence reading (SNAT1 and SNAT2 [1]; HCC1806 UNINDUCED (c1-c9), t=0 s): 95009 and 106958 and 105072
FMP fluorescence reading (SNAT1 and SNAT2 [1]; HCC1806 UNINDUCED (c1-c9), t=15 s): 92832 and 105585 and 105488
FMP fluorescence reading (SNAT1 and SNAT2 [1]; HCC1806 UNINDUCED (c1-c9), t=30 s): 92285 and 105041 and 105362
FMP fluorescence reading (SNAT1 and SNAT2 [1]; HCC1806 UNINDUCED (c1-c9), t=45 s): 92217 and 104713 and 105477
FMP fluorescence reading (SNAT1 and SNAT2 [1]; HCC1806 UNINDUCED (c1-c9), t=60 s): 92501 and 104852 and 105149
FMP fluorescence reading (SNAT1 and SNAT2 [1]; HCC1806 UNINDUCED (c1-c9), t=75 s): 92072 and 104235 and 104746
FMP fluorescence reading (SNAT1 and SNAT2 [1]; HCC1806 UNINDUCED (c1-c9), t=90 s): 91505 and 104029 and 104931
FMP fluorescence reading (SNAT1 and SNAT2 [1]; HCC1806 UNINDUCED (c1-c9), t=105 s): 91498 and 103606 and 105160
FMP fluorescence reading (SNAT1 and SNAT2 [1]; HCC1806 UNINDUCED (c1-c9), t=120 s): 91509 and 103340 and 104992
FMP fluorescence reading (SNAT1 and SNAT2 [1]; HCC1806 UNINDUCED (c1-c9), t=135 s): 91754 and 103170 and 104515
FMP fluorescence reading (SNAT1 and SNAT2 [1]; HCC1806 UNINDUCED (c1-c9), t=-15 s): 94947 and 106966 and 104913
FMP fluorescence reading (SNAT1 and SNAT2 [1]; HCC1806 UNINDUCED (c1-c9), t=-30 s, glutamine introduced at t=0, replicates 1-3): 94749 and 106497 and 104978
IC50 (SNAT1 and SNAT2 [1]; glutamine induced depolarisation, HCC1806 AA- (24h), n = 3): 330 ± 160 µM
FMP fluorescence reading (SNAT1 and SNAT2 [1]; second group headed UNINDUCED (c11-c19), t=0 s): 79859 and 84357 and 91947
FMP fluorescence reading (SNAT1 and SNAT2 [1]; second group headed UNINDUCED (c11-c19), t=15 s): 80630 and 83515 and 91899
FMP fluorescence reading (SNAT1 and SNAT2 [1]; second group headed UNINDUCED (c11-c19), t=30 s): 79854 and 83032 and 91748
FMP fluorescence reading (SNAT1 and SNAT2 [1]; second group headed UNINDUCED (c11-c19), t=45 s): 79700 and 82661 and 90895
FMP fluorescence reading (SNAT1 and SNAT2 [1]; second group headed UNINDUCED (c11-c19), t=60 s): 79052 and 82273 and 90365
FMP fluorescence reading (SNAT1 and SNAT2 [1]; second group headed UNINDUCED (c11-c19), t=75 s): 78466 and 81641 and 89825
FMP fluorescence reading (SNAT1 and SNAT2 [1]; second group headed UNINDUCED (c11-c19), t=90 s): 78374 and 80769 and 89707
FMP fluorescence reading (SNAT1 and SNAT2 [1]; second group headed UNINDUCED (c11-c19), t=105 s): 77755 and 80422 and 88694
FMP fluorescence reading (SNAT1 and SNAT2 [1]; second group headed UNINDUCED (c11-c19), t=120 s): 77065 and 79988 and 88225
FMP fluorescence reading (SNAT1 and SNAT2 [1]; second group headed UNINDUCED (c11-c19), t=135 s): 76289 and 79358 and 87841
FMP fluorescence reading (SNAT1 and SNAT2 [1]; second group headed UNINDUCED (c11-c19), t=-15 s): 80373 and 84318 and 91914
block of glutamine (1 mM) FMP signal (SNAT1 and SNAT2 [2]): fully blocked
FMP fluorescence (SNAT1 and SNAT2 [2]; time 0, replicates 1-10): 22566 and 24924 and 25754 and 31415 and 31062 and 25958 and 24037 and 24199 and 31861 and 22458
FMP fluorescence (SNAT1 and SNAT2 [2]; time 30, replicates 1-10): 22979 and 25257 and 24877 and 31065 and 30653 and 25037 and 22964 and 23247 and 31019 and 21524
FMP fluorescence (SNAT1 and SNAT2 [2]; time 40, replicates 1-10): 22836 and 25183 and 25086 and 31077 and 30677 and 25349 and 23314 and 23279 and 31141 and 21715
FMP fluorescence (SNAT1 and SNAT2 [2]; time 50, replicates 1-10): 22729 and 25095 and 24771 and 30889 and 30642 and 25022 and 23105 and 23276 and 31320 and 21555
FMP fluorescence (SNAT1 and SNAT2 [2]; time 60, replicates 1-10): 22771 and 25085 and 24871 and 30919 and 30705 and 25319 and 23018 and 23144 and 31224 and 21790
FMP fluorescence (SNAT1 and SNAT2 [2]; time 70, replicates 1-10): 22546 and 24933 and 24936 and 30890 and 30628 and 25268 and 22856 and 23122 and 31403 and 21489
FMP fluorescence (SNAT1 and SNAT2 [2]; time 80, replicates 1-10): 22447 and 25159 and 24725 and 30733 and 30614 and 25267 and 22687 and 23011 and 31397 and 21490
FMP fluorescence (SNAT1 and SNAT2 [2]; time 90, replicates 1-10): 22259 and 25131 and 24741 and 30924 and 30357 and 25175 and 22779 and 23104 and 30871 and 21284
FMP fluorescence (SNAT1 and SNAT2 [2]; time -10, replicates 1-10): 23300 and 25374 and 26077 and 32072 and 31514 and 26200 and 24526 and 24442 and 32334 and 22554
FMP fluorescence (SNAT1 and SNAT2 [2]; time -20, replicates 1-10): 23913 and 26637 and 26782 and 32769 and 33018 and 26873 and 25394 and 25312 and 33318 and 23095
